From patent US8940784B2, “Water-soluble CC-1065 analogs and their conjugates” (priority 2006, dated 2015)
Counter-ions that a name gives are not always drawn.

Experiments:
[1] = test system: human lung carcinoma cell line A549; experiment: In vitro cytotoxicity, clone forming assay in A549 cells; type: cell-based; settings: A549, 24 h exposure, 12 days cultivation
Method: In vitro cytotoxicity of compounds (+)-8a-e and (+)-4a-e: Adherent cells of line A549 were sown in triplicate in 6 multiwell plates at concentrations of 10^2, 10^3, 10^4, and 10^5 cells per cavity. Culture medium was removed after 24 h and cells were washed hi the incubation medium Ultraculture (UC, serum-free special medium, purchased from BioWhittaker Europe, Verviers, Belgium). Incubation with compounds (+)-8a-e and (+)-4a-e was then performed in Ultraculture medium at various concentrations for 24 h. All substances were used as freshly prepared solutions in DMSO (Merck, Darmstadt, Germany) diluted with incubation medium to a final concentration of 1% DMSO in the wells. After 24 h of exposure the test substance was removed and the cells were washed with fresh medium. Cultivation was done at 37° C. and 7.5% CO2 in air for 12 days. The medium was removed and the clones were dried and stained with Löffler's methylene blue (Merck, Darmstadt, Germany). They were then counted macroscopically.
The IC50 values are based on the relative clone forming rate, which was determined according to the following formula: relative clone forming rate [%]=100×(number of clones counted after exposure)/(number of clones counted in the control).
Liberation of the drugs from their glycosidic prodrugs was achieved by addition of 4.0 U·mL^−1 β-D-galactosidase (EC 3.2.1.23, Grade X, purchased from Sigma Germany, Deisenhofen, Germany) to the cells during incubation with the substances.

[2] = test system: MDA-MB-231 cells (estrogen-independent human breast cancer cell line); experiment: ADEPT in vivo experiment, orthotopic breast tumor SCID mouse model
Method: Compound (+)-8a was evaluated in an orthotopic breast tumor SCID mouse model using the ADEPT concept. Female SCID mice were inoculated with 1×10^6 MDA-MB-231 cells (estrogen-independent human breast cancer cell line) suspended in 25 μl sterile PBS in the mammary fad pat of the 4th mammary complex. Tumors were allowed to grow and ADEPT therapy was started after tumor volumes reached a detectable size. Mice were treated according to the treatment schedule in FIG. 17 and received two treatment cycles of a monoclonal anti-human urokinase plasminogen activator receptor (uPAR) antibody conjugated with β-Galactosidase, uPAR*β-Gal, in PBS followed by three injections with conjugate (+)-8a in 1% DMSO/NaCl solution. Control groups received either antibody-enzyme and 1% DMSO/NaCl solution (antibody-enzyme only group), PBS and conjugate (conjugate only group), or PBS and 1% DMSO/NaCl solution (control group).
In vivo evaluation of compound (+)-8a in an orthotopic breast tumor SCID mouse model using the ADEPT concept: Before tumor cell implantation, female SCID mice were anesthetized by peritoneal injection of 75 mg/kg ketamine hydrochloride with 15 mg/kg xylazine. 1×10^6 MDA-MB-231 cells (estrogen-independent human breast cancer cell line) suspended in 25 μl sterile phosphate-buffered saline (PBS) were then implanted into the mammary fad pat of the 4th mammary complex. After implantation, mice were inspected daily for body weight loss, general condition, and tumor formation. On day 21, animals were randomized in groups of 5-12 mice (control, antibody-enzyme only, prodrug only, and ADEPT therapy). On days 22 and 30, mice were injected intravenously with PBS (control, prodrug only groups) or 50 μg of a monoclonal anti-human urokinase plasminogen activator receptor (uPAR) antibody conjugated with β-Galactosidase, uPAR*β-Gal, in PBS (antibody-enzyme only, ADEPT therapy groups). On days 24, 26, 28, 32, 34, and 36, mice were injected intravenously with 1% DMSO/NaCl solution (control, antibody-enzyme only groups) or 104 μg of (+)-8a in 1% DMSO/NaCl solution (prodrug only, ADEPT therapy groups). Mice were sacrificed on day 38 and tumors were excised, weighed, placed in phosphate-buffered 4% formalin for 16 hours at room temperature, and embedded in paraffin. Tissue sections (2.5 μm) were obtained, stained with hematoxylin and eosin (H & E), and inspected by routine microscopic examinations. For immunohistochemistry, 2.5 μm sections from formalin-fixed and paraffin-embedded tissues, were mounted on slides, deparaffinized in xylene and rehydrated in ethanol/water dilutions. Slides for Ki67 staining were pretreated by boiling in a microwave oven (5×5 min) in citrate buffer (pH 6.0) for antigen retrieval. Endogenous peroxidases were inactivated by treatment with 3% hydrogen peroxide for 10 min. Tris-buffered 10% rabbit serum solution (Dako, Hamburg, Germany, No. X 0902) was then added to block nonspecific protein binding and slides were incubated with murine anti-human Ki67 (Dianova, Hamburg, Germany, No. dia 505) for 60 min (2 μg/ml) followed by exposure to biotinylated rabbit anti-mouse F(ab′)2-fragment (Dako, No. E 0413, 16.8 μg/ml) for 30 min. Sections were then incubated with avidin-peroxidase solution (Dako, No. P 364), stained with aminoethylcarbazole (AEC substrate solution, Sigma), rinsed in water, and finally counterstained with hematoxylin.

[3] = without addition of β-D-galactosidase
[4] = with addition of 4.0 U/mL β-D-galactosidase

SMILES	IC50 [1, 3]	IC50 [1, 4]	also measured
COc1cc2[nH]c(C(=O)N3CC(C(C)Cl)c4c3cc(O)c3ccccc43)cc2cc1OCCN(C)C (single isomer, unassigned; (+)) [(+)-4c, (+)-{(1,10)-anti-1-(10-Chloroethyl)-5-hydroxy-3-[(5-(2-(N,N-dimethylamino)ethoxy)-6-methoxy-indol-2-yl)carbonyl]-1,2-dihydro-3H-benz[e]indole-hydrochloride}]	0.2 nM		
CC(Cl)C1CN(C(=O)c2cc3cc(NC(=O)CN(C)C)ccc3[nH]2)c2cc(O)c3ccccc3c21 (single isomer, unassigned; (+)) [(+)-4e]	3.8 nM		
CC(Cl)C1CN(C(=O)c2cc3cc(OCCN4CCOCC4)ccc3[nH]2)c2cc(O)c3ccccc3c21 (single isomer, unassigned; (+)) [(+)-4b, (+)-{(1,10)-anti-1-(10-Chloroethyl)-5-hydroxy-3-[(5-(2-(morpholin-4-yl)ethoxy)indol-2-yl)carbonyl]-1,2-dihydro-3H-benz[e]indole-hydrochloride}]	3.7 nM		
C[C@@H](Cl)[C@@H]1CN(C(=O)c2cc3cc(NC(=O)CN(C)C)ccc3[nH]2)c2cc(O[C@@H]3O[C@H](CO)[C@H](O)[C@H](O)[C@H]3O)c3ccccc3c21 [(+)-8e]	7700 nM	5.9 nM	
COc1cc2[nH]c(C(=O)N3C[C@@H]([C@@H](C)Cl)c4c3cc(O[C@@H]3O[C@H](CO)[C@H](O)[C@H](O)[C@H]3O)c3ccccc43)cc2cc1OCCN(C)C [(+)-8c, [(+)-(1S,10R)-1-(10-Chloroethyl)-3-[(5-(2-(N,N-dimethylamino)ethoxy)-6-methoxy-indol-2-yl)carbonyl]-1,2-dihydro-3H-benz[e]indol-5-yl]-β-D-galactopyranoside]	940 nM	0.22 nM	
C[C@@H](Cl)[C@@H]1CN(C(=O)c2cc3cc(OCCN(C)C)ccc3[nH]2)c2cc(O[C@@H]3O[C@H](CO)[C@H](O)[C@H](O)[C@H]3O)c3ccccc3c21 [(1S,10R)-8a and (1R,10S)-8a′, [(1,10)-anti-1-(10-Chloroethyl)-3-[(5-(2-(N,N-dimethylamino)ethoxy)-indol-2-yl)carbonyl]-1,2-dihydro-3H-benz[e]indol-5-yl]-β-D-galactopyranoside]	7900 nM	1.2 nM	
CC(Cl)C1CN(C(=O)c2cc3cc(OCCN4CCOCC4)ccc3[nH]2)c2cc(O[C@@H]3O[C@H](CO)[C@H](O)[C@H](O)[C@H]3O)c3ccccc3c21 (single isomer, unassigned; (+)) [(+)-8b, [(+)-(1,10)-anti-1-(10-Chloroethyl)-3-[(5-(2-(morpholin-4-yl)ethoxy)-indol-2-yl)carbonyl]-1,2-dihydro-3H-benz[e]indol-5-yl]-β-D-galactopyranoside]	1500 nM	2.5 nM	
CC(Cl)C1CN(C(=O)c2cc3cc(OCC4CCN(C)CC4)ccc3[nH]2)c2cc(O)c3ccccc3c21 (single isomer, unassigned; (+)) [(+)-4d, (+)-{(1,10)-anti-1-(10-Chloroethyl)-5-hydroxy-3-[(5-((1-methylpiperidin-4-yl)methoxy)indol-2-yl)carbonyl]-1,2-dihydro-3H-benz[e]indole-hydrochloride}]	0.8 nM		
CC(Cl)C1CN(C(=O)c2cc3cc(OCCN(C)C)ccc3[nH]2)c2cc(O)c3ccccc3c21 (single isomer, unassigned; (+)) [(+)-4a, (1,10)-anti-1-(10-Chloroethyl)-5-hydroxy-3-[(5-(2-(N,N-dimethylamino)ethoxy)indol-2-yl)carbonyl]-1,2-dihydro-3H-benz[e]indole-hydrochloride]	0.75 nM		
CC(Cl)C1CN(C(=O)c2cc3cc(OCC4CCN(C)CC4)ccc3[nH]2)c2cc(O[C@@H]3O[C@H](CO)[C@H](O)[C@H](O)[C@H]3O)c3ccccc3c21 (single isomer, unassigned; (+)) [(+)-8d, [(+)-(1,10)-anti-1-(10-Chloroethyl)-3-[(5-((1-methylpiperidin-4-yl)methoxy)-indol-2-yl)carbonyl]-1,2-dihydro-3H-benz[e]indol-5-yl]-β-D-galactopyranoside]	830 nM	0.75 nM	
C[C@@H](Cl)[C@@H]1CN(C(=O)c2cc3cc(OCCN(C)C)ccc3[nH]2)c2cc(O[C@@H]3O[C@H](CO)[C@H](O)[C@H](O)[C@H]3O)c3ccccc3c21 [(+)-8a, [(1,10)-anti-1-(10-Chloroethyl)-3-[(5-(2-(N,N-dimethylamino)ethoxy)-indol-2-yl)carbonyl]-1,2-dihydro-3H-benz[e]indol-5-yl]-β-D-galactopyranoside]			IC50 ([1]; with addition of 4.0 U/mL β-D-galactosidase, listed as (1S,10R)-8a): 0.75 nM; IC50 ([1]; without addition of β-D-galactosidase, listed as (1S,10R)-8a): 3600 nM; average primary tumor volume ([2]; ADEPT therapy (uPAR*β-Gal followed by (+)-8a i.v.), after one treatment cycle): 0.23±0.07 cm^3; mean tumor volume ([2]; ADEPT therapy (uPAR*β-Gal followed by (+)-8a i.v.), after two treatment cycles): 0.33±0.13 cm^3; necrotic tissue within tumors ([2]; ADEPT therapy versus vehicle-treated mice): more necrotic tissue within tumors; tolerability ([2]; ADEPT therapy, all animals): well tolerated; blood parameters ([2]; treated mice compared to controls): not altered; inhibitory effect on tumor growth with respect to vehicle control ([2]; treatment with the substance alone (antibody-enzyme only or conjugate only group)): no inhibitory effect
